Experiments:
PI4KIIIB = PI4KIIIB (Bos taurus (Bovine), UniProt O02810); assay: PI4KIIIβ kinase assay (immunoprecipitated HA-tagged enzyme, [γ-32P]-ATP); format: biochemical; conditions: kinase activity
Cell toxicity (CC50) = format: cell-based; conditions: human, HuH-7 cells
PI4KIIIA = PI4KIIIA (Homo sapiens (Human), UniProt P42356); assay: PI4KIIIα kinase assay (immunoprecipitated HA-tagged enzyme, [γ-32P]-ATP); format: biochemical; conditions: kinase activity
PI3K p110g = PI3K p110g (Homo sapiens (Human), UniProt P48736); assay: PI3K p110g kinase assay; format: biochemical; conditions: kinase activity
PI3K p110g, sequence (P48736 whole entry): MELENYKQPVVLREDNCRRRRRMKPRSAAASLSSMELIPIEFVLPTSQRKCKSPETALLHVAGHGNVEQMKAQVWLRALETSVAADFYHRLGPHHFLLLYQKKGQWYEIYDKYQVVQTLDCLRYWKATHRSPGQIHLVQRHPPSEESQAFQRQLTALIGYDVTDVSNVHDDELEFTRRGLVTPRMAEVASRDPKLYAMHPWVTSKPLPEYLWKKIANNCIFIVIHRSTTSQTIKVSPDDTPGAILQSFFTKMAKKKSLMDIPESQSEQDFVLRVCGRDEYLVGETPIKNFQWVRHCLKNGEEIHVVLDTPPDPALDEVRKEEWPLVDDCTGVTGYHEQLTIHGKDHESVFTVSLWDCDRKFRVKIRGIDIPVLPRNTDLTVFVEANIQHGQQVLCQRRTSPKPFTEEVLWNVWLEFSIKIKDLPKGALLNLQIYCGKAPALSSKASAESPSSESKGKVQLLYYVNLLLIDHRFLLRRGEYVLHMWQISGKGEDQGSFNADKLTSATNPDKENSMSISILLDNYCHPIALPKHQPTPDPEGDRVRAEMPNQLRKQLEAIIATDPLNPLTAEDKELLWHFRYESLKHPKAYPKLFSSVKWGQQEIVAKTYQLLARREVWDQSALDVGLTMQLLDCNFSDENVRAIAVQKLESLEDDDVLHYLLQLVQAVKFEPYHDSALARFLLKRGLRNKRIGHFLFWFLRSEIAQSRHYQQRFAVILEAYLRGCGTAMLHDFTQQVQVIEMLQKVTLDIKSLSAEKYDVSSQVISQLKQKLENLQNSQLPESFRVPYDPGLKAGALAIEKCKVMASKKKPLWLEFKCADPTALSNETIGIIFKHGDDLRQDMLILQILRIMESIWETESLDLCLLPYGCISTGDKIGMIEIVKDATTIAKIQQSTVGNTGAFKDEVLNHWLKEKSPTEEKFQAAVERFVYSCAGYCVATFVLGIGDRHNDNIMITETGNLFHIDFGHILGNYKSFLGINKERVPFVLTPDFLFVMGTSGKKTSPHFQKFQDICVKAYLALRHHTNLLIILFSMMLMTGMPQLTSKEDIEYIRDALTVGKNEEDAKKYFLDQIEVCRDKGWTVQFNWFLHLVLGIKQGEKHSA

PI3KC2G = PI3KC2G (Homo sapiens (Human), UniProt O75747); assay: PI3KC2G kinase assay; format: biochemical; conditions: kinase activity
PI3KC2G, sequence (O75747 whole entry): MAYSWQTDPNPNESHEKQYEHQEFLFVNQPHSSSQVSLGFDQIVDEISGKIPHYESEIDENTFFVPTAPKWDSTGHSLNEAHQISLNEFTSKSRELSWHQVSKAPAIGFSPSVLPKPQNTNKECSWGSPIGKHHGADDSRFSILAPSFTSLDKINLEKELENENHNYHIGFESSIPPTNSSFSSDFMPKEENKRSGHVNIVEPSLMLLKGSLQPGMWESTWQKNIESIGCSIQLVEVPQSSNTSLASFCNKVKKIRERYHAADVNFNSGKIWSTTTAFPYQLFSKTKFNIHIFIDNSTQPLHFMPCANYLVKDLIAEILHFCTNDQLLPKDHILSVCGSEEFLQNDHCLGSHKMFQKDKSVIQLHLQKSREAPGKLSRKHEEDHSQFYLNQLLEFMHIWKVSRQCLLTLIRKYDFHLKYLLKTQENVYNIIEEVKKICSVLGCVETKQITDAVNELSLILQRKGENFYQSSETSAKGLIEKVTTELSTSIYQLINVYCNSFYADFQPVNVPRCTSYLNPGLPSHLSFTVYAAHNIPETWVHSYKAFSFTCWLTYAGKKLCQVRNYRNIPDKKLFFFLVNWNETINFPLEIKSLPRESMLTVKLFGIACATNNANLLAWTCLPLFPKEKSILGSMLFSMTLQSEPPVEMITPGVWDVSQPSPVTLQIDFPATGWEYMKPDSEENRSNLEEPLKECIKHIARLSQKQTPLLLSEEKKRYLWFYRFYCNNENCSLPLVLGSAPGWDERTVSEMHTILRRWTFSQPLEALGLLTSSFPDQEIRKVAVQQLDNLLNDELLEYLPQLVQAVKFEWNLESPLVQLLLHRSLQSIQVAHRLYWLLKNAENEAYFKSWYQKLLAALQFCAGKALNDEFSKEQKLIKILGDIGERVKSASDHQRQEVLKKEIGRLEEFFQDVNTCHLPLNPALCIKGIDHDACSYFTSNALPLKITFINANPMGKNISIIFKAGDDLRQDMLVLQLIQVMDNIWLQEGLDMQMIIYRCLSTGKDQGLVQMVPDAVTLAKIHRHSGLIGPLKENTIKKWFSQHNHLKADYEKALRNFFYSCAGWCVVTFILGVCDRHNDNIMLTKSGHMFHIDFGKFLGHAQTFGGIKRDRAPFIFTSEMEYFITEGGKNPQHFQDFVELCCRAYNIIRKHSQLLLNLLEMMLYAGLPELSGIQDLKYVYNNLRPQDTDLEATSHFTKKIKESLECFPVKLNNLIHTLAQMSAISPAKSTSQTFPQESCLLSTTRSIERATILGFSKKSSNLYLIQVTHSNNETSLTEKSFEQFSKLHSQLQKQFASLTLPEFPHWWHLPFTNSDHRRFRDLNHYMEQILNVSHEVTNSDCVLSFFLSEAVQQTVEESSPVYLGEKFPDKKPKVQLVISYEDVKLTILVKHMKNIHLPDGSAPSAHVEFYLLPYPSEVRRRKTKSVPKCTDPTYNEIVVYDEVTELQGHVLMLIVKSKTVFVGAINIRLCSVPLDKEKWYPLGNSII
Procedure: PI-kinase assay: Compounds are tested in C.1.1. PI kinase assays as described by Shokat et al., “A membrane capture assay for lipid kinase activity.” Nat. Protoc.
Selected compounds of Table 1 and 2 were prepared and tested for inhibition activity in a variety of kinase assays.

PI4KIIIA, sequence (P42356 whole entry): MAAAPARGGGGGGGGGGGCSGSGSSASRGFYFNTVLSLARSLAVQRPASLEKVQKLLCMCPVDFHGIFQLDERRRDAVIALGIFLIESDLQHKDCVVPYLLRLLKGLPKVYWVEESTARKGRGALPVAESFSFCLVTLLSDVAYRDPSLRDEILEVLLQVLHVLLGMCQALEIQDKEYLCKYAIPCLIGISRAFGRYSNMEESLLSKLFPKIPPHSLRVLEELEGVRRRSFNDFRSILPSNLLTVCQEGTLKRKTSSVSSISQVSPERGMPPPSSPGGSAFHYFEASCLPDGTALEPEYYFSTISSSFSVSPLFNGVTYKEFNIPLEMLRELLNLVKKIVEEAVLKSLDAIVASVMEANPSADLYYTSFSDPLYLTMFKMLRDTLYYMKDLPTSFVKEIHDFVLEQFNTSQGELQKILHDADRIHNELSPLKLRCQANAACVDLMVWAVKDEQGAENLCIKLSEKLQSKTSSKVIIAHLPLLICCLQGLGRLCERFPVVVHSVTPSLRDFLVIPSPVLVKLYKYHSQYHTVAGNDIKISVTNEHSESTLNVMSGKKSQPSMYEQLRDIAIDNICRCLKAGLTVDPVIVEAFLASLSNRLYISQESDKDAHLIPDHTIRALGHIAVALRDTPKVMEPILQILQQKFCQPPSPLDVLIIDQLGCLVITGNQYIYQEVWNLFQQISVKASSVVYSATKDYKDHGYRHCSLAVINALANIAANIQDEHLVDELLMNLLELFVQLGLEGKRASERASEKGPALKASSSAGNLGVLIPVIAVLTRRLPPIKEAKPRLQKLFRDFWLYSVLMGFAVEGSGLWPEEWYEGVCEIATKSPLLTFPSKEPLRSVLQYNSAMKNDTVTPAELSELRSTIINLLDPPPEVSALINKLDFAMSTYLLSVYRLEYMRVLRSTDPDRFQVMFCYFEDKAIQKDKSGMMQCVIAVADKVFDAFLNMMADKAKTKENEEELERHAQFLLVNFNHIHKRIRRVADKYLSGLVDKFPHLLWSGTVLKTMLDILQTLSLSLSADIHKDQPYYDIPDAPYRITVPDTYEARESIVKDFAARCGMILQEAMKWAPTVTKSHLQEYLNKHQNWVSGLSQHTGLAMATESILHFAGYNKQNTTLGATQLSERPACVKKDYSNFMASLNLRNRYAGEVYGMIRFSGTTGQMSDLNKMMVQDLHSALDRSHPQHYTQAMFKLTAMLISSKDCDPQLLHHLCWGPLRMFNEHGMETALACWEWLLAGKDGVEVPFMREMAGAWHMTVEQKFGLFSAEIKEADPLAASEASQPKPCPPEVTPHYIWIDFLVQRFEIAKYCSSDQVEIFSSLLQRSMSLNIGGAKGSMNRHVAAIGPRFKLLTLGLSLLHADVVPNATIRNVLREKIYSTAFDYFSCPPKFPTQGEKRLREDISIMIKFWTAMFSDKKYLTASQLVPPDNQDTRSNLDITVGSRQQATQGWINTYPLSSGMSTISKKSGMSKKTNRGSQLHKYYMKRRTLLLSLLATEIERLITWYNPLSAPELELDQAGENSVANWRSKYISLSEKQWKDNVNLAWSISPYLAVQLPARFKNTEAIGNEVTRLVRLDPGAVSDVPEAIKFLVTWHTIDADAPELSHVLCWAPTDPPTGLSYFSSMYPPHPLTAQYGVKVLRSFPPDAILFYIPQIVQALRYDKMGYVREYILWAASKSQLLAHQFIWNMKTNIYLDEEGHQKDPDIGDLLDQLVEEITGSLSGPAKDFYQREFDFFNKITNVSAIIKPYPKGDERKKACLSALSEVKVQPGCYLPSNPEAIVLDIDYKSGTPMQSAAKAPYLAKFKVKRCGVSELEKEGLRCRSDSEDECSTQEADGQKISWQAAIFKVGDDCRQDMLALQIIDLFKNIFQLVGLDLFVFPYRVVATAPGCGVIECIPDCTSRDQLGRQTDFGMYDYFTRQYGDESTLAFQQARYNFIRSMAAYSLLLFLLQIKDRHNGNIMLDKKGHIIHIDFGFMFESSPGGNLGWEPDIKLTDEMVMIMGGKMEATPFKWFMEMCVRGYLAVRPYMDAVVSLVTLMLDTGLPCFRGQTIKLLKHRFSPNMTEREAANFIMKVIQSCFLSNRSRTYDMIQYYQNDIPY

| Structure (SMILES) | IC50 (PI4KIIIB) [nM] | further results |
| --- | --- | --- |
| COc1ccc(-c2sc(NC(=O)C3CCCC3)nc2C)cc1S(=O)(=O)N[C@H]1CC[C@H](O)CC1 [Compound S-9] | < 100 | – |
| COc1ccc(-c2sc(NCC3CCCCC3)nc2C)cc1S(=O)(=O)Nc1ccccc1F [Compound S-29] | – | CC50 (Cell toxicity (CC50)): > 10000 nM |
| COc1ccc(-c2sc(NC(=O)C3CCCC3)nc2C)cc1S(=O)(=O)Nc1ccc(CO)cc1 [Compound S-41] | < 100 | – |
| COc1ccc(-c2sc(NC(=O)Cc3ccccc3)nc2C)cc1S(=O)(=O)Nc1ccc(O)cc1 [Compound S-49] | < 100 | – |
| COc1ccc(NS(=O)(=O)c2cc(-c3sc(NC(=O)CC4CCCCC4)nc3C)ccc2OC)c(C)c1 [Compound S-85] | – | CC50 (Cell toxicity (CC50)): > 10000 nM |
| COc1ccc(NS(=O)(=O)c2cc(-c3sc(NC4CCCCCC4)nc3C)ccc2OC)c(C)c1 [Compound S-89] | – | CC50 (Cell toxicity (CC50)): > 10000 nM |
| COc1ccc(-c2sc(NC(=O)CC3CCCC3)nc2C)cc1S(=O)(=O)Nc1ccc(C)nc1 [Compound S-100] | 100 to 1000 | IC50 (PI4KIIIA): > 10000 nM; IC50 (PI3K p110g): > 10000 nM |
| COc1ccc(-c2sc(NC3CCCCC3)nc2C)cc1S(=O)(=O)Nc1ccc(O)cc1C [Compound S-106] | – | CC50 (Cell toxicity (CC50)): > 10000 nM |
| COc1ccc(-c2sc(NCC3CCCCC3)nc2C)cc1S(=O)(=O)NC1CCNCC1 [Compound S-123] | < 100 | – |
| COc1ccc(-c2sc(NCC3CCCCC3)nc2C)cc1S(=O)(=O)NC1CC1 [Compound S-127] | 100 to 1000 | IC50 (PI4KIIIA): > 10000 nM; IC50 (PI3KC2G): > 10000 nM; IC50 (PI3K p110g): > 10000 nM |
| COc1ccc(-c2sc(NCC3CCCCC3)nc2C)cc1S(=O)(=O)NCC1CCCCC1 [Compound S-128] | 100 to 1000 | IC50 (PI4KIIIA): > 10000 nM; IC50 (PI3KC2G): > 10000 nM; IC50 (PI3K p110g): > 10000 nM |
| COc1ccc(-c2sc(NC3CCCCC3)nc2C)cc1S(=O)(=O)NC1CCCC1 [Compound S-129] | 100 to 1000 | IC50 (PI4KIIIA): > 10000 nM; IC50 (PI3KC2G): > 10000 nM; IC50 (PI3K p110g): > 10000 nM |
| COc1ccc(-c2sc(NC3CCCCC3)nc2C)cc1S(=O)(=O)NC1CCCCCC1 [Compound S-131] | 100 to 1000 | IC50 (PI4KIIIA): > 10000 nM; IC50 (PI3KC2G): > 10000 nM |
| COc1ccc(-c2sc(NCC3CCCCC3)nc2C)cc1S(=O)(=O)NC1CCN(C2CCCC2)CC1 [Compound S-133] | < 100 | – |
| COc1ccc(-c2sc(NCC3CCCCC3)nc2C)cc1S(=O)(=O)NC1CCN(C(C)C)CC1 [Compound S-134] | < 100 | – |
| COc1ccc(-c2sc(NCC3CCCCC3)nc2C)cc1S(=O)(=O)NC1CCN(C2CC2)CC1 [Compound S-135] | < 100 | – |

| Structure (SMILES) | IC50 (PI4KIIIB) [nM] | further results |
| --- | --- | --- |
| COc1ccc(-c2sc(NCC3CCCCC3)nc2C)cc1S(=O)(=O)NC1CCN(C2CCCCC2)CC1 [Compound S-136] | < 100 | – |
| COc1ccc(-c2sc(NC(=O)[C@@H](C)C3CCCCC3)nc2C)cc1S(=O)(=O)Nc1ccc(O)cc1 [Compound S-138] | – | CC50 (Cell toxicity (CC50)): > 10000 nM |
| COc1ccc(-c2sc(N[C@H](C)C3CCCCC3)nc2C)cc1S(=O)(=O)NC1CCCNC1 (some centres unmarked) [Compound S-148] | – | IC50 (PI3K p110g): > 10000 nM |
| COc1ccc(-c2sc(NC(=O)CC3CCCC3)nc2C)cc1S(=O)(=O)N[C@H]1CC[C@H](O)CC1 [Compound S-151] | < 100 | – |
| COc1ccc(-c2sc(NC(=O)CC3CCCC3)nc2C)cc1S(=O)(=O)NCCCCO [Compound S-152] | < 100 | – |
| COc1ccc(-c2sc(NC(=O)CC3CCCC3)nc2C)cc1S(=O)(=O)N1CC[C@@H](O)C1 [Compound S-153] | < 100 | – |
| COc1ccc(-c2sc(NC3CCCCC3)nc2C)cc1S(=O)(=O)N[C@H]1CC[C@H](O)CC1 [Compound S-166] | < 100 | – |
| COc1ccc(-c2sc(NC3CCCCC3)nc2C)cc1S(=O)(=O)N[C@H]1CC[C@@H](O)CC1 [Compound S-167] | < 100 | – |
| COc1ccc(-c2sc(N[C@@H](C)C3CCCCC3)nc2C)cc1S(=O)(=O)N[C@H]1CC[C@H](O)CC1 [Compound S-183] | < 100 | – |
| Cc1ccc(-c2sc(NC(=O)CC3CCCC3)nc2C)cc1S(=O)(=O)NC1CCNCC1 [Compound S-188] | < 100 | – |
| COc1ccc(-c2sc(N[C@H](C)C3CCCCC3)nc2C)cc1S(=O)(=O)N[C@@H]1CCNC1 [Compound S-197] | < 100 | – |
| COc1ccc(-c2sc(N[C@H](C)C3CCCCC3)nc2C)cc1S(=O)(=O)N[C@H]1CC[C@@H](O)CC1 [Compound S-198] | 100 to 1000 | – |
| COc1ccc(-c2sc(N[C@H](C)C3CCCCC3)nc2C)cc1S(=O)(=O)N[C@H]1CCNC1 [Compound S-201] | < 100 | – |
| COc1ccc(-c2sc(NCCC3CCCCC3)nc2C)cc1S(=O)(=O)NC1CCNCC1 [Compound S-202] | < 100 | – |
| COc1ccc(-c2sc(N[C@@H](C)C3CCCCC3)nc2C)cc1S(=O)(=O)N[C@H]1CC[C@@H](O)CC1 [Compound S-206] | 1000 to 10000 | – |

Source: US11091472B2, “PI-kinase inhibitors with anti-infective activity” (The Board of Trustees of the Leland Stanford Junior …, priority 2016, dated 2021)
